Source: patent publication US8349553B2, “Jasmonate based assays for identifying compounds that selectively inhibit mitochondrial bound hexokinases” (Ramot at Tel Aviv University Ltd., priority 2007, dated 2013)

What was measured:
[1] = molecular target: T1, hexokinase-I-Voltage dependent anion channel interactions (Rattus norvegicus, UniProt P05708); test: Voltage-dependent anion channel recording in planar lipid bilayer after addition of hexokinase-I; type: biochemical; conditions: 3 mM, HK-I 20 mU/ml, recorded after 10 minutes
T1 construct: from tissue; host or cells: HK-I from rat brain mitochondria; VDAC from rat liver mitochondria
T1 sequence (P05708 whole entry): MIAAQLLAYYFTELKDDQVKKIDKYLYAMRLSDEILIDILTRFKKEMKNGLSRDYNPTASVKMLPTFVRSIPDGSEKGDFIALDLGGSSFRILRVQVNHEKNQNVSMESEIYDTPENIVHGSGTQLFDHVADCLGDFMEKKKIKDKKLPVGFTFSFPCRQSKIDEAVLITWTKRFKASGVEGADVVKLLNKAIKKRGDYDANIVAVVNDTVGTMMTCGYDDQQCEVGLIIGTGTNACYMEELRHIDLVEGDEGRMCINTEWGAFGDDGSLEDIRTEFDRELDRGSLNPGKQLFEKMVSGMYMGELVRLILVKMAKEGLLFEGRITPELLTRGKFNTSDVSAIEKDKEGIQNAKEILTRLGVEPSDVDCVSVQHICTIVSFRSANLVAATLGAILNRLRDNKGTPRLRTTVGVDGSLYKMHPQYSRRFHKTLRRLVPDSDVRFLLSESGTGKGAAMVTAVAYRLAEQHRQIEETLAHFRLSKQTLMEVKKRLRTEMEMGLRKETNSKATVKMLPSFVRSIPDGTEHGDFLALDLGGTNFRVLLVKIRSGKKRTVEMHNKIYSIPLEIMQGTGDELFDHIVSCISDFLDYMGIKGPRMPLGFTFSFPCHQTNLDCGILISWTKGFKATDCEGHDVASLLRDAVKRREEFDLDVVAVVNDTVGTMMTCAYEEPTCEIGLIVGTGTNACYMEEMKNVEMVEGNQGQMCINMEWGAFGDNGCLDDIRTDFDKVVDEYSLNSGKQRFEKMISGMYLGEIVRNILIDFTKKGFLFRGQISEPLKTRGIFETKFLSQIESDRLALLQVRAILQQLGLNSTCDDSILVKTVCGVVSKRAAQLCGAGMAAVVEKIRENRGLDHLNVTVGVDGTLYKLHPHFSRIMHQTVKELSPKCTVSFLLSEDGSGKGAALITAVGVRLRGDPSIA
Experimental: (§1) Currents were measured with respect to the trans side of the membrane (ground).

[2] = tested on: HKI and HKII (mitochondrial fraction of CT-26 tumor); test: Western blot of supernatants with anti-HKI and anti-HKII, CT-26 tumor mitochondrial fraction; type: biochemical, murine
Experimental: For analysis of hexokinase levels, the experiments were performed similarly to hexokinase detachment assay described above, and unbound hexokinase in the supernatant fraction was extracted as described in Fingrut (2005). Samples were separated by sodium dodecylsulfate-polyacrylamide gel (7%) electrophoresis followed by immunoblotting. The blots were probed with specific anti-HKI or anti-HKII antibodies (1:300, Santa-Cruz Biotechnology, CA, USA). Hexokinase-antibody complexes were stained with HRP-conjugated antibody (1:10,000, Santa-Cruz Biotechnology, CA, USA). Enhanced chemiluminescence (ECL) reagent (Biological Industries, Beit Haemek, Israel) was added, and the blots were exposed to ECL film (Eastman Kodak, Rochester, N.Y., USA). In order to verify physical detachment of mitochondrial hexokinase, similar preparations were separated on SDS-PAGE, electroblotted to nitrocellulose membrane and probed with anti-HKI and anti-HKII antibodies.

lymphomas = conditions: mice; cited from earlier work
[3] = molecular target: T2, mitochondria-bound hexokinase (mitochondrial fraction isolated from mouse brain) (Mus musculus, UniProt P17710); test: Hexokinase detachment assay, mitochondrial fraction of mouse brain; type: biochemical
T2 construct: detach hexokinase from mitochondrial fraction isolated from mouse brain; from tissue; host or cells: mouse brain (mitochondrial fraction)
T2 sequence (P17710 1-918 isoform P17710-3): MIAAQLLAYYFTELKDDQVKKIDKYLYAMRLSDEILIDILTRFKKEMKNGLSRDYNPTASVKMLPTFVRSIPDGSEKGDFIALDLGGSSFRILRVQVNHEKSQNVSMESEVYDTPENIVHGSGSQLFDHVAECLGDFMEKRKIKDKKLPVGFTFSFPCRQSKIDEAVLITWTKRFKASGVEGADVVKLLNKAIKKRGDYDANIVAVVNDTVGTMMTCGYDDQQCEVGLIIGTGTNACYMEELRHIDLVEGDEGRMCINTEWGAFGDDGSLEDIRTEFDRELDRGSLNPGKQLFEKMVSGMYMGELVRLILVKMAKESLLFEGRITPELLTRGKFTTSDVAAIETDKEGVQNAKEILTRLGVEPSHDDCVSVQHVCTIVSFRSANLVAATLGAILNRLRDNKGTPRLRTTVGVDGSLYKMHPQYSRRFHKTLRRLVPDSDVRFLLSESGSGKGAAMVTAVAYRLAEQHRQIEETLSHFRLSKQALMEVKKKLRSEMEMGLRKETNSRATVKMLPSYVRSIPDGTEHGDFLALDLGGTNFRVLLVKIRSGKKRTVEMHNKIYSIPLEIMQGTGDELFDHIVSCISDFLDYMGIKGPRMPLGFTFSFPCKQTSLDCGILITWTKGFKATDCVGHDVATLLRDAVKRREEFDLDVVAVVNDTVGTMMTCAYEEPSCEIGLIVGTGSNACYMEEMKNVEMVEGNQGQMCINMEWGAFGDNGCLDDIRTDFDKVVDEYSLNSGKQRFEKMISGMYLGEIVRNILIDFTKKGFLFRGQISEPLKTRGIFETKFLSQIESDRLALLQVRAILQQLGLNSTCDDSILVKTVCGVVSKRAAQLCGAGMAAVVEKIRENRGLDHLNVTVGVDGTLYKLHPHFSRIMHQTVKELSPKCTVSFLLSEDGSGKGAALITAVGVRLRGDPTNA
Experimental: To determine the amount of hexokinase detached from the mitochondrial fraction by different agents, mitochondria were incubated with the agent of interest and pelleted by centrifugation. Activity of hexokinase in the supernatant (i.e., activity of the detached hexokinase) was determined spectrophotometrically at 340 nm. The reaction couples the ADP formation by hexokinase, consuming the ADP for pyruvate formation by pyruvate kinase, and reducing the pyruvate with NADH by lactate dehydrogenase. Briefly, mitochondria were suspended in incubation buffer (HEPES pH 7.4 20 mM, Sucrose 0.25M, Glucose 10 mM, KCl5 mM, MgCl2 10 mM; 0.2 mg/test, 100 μL/test) and incubated as described below. Mitochondria-bound hexokinase was precipitated by centrifugation at 20,000 g for 10 minutes at 4° C. The activity of hexokinase in the supernatant fraction was assayed in reaction buffer (250 μL; HEPES pH 7.2 20 mM, MgCl2 5 mM, KCl 5 mM, glucose 10 mM) freshly supplemented with pyruvate kinase (1 U/ml), lactate dehydrogenase (1 U/ml), ATP (1 mM), phospho(enol)pyruvate (1 mM), NADH (0.18 mg/ml). […] Mitochondrial fractions were incubated for either 10, 30 or 60 minutes at 37° C. The activity of unbound hexokinase was measured and compared to the activity of spontaneously (control) detached hexokinase.

[4] = tested on: mitochondria-bound hexokinase (mitochondrial fraction of BCL-1 leukemic cells); test: Hexokinase detachment assay, mitochondrial fraction of BCL-1 leukemic cells; type: biochemical, murine; conditions: BCL-1 mitochondrial fraction; 30 minutes at 37° C.
Experimental: (§2) Mitochondrial fraction was prepared by mechanical lysis and differential centrifugation. All stages were performed on ice. Cells or extracted tissues were washed with PBS and disrupted by homogenization in extraction buffer (Sucrose 250 mM, HEPES-NaOH 10 mM, pH 7.2) freshly supplemented with 0.1 mM EDTA and Protease Inhibitors cocktail (Sigma). For each gram of cells or tissue, 4 volumes of extraction buffer were applied. The homogenate volume was doubled with the extraction buffer, and tissue and cell debris as well as nuclei were pelleted by centrifugation of 1,000 g for 10 minutes. The supernatant was further spun at 13,000 g for 10 minutes twice. Endoplasmic reticulum layer was removed. The pellet, designated as the mitochondrial fraction, was suspended in the appropriate buffer, depending on the assay for which the mitochondrial fraction was prepared. Mitochondrial fractions were used immediately or stored at −196° C. […] Activity of hexokinase in the supernatant (i.e., activity of the detached hexokinase) was determined spectrophotometrically at 340 nm. […] Mitochondrial fractions isolated from different cancer cells, namely Molt-4 cells, BCL-1 leukemic cells and B16 melanoma tumors were incubated for 30 minutes at 37° C., and the activity of unbound hexokinase was measured and compared to the activity of spontaneously (control) detached hexokinase. […]

[5] = tested on: mitochondrial fraction isolated from CT-26 tumors; test: Cytochrome c release from mitochondrial fraction; type: biochemical, murine; conditions: 3 mM
Experimental: Freshly isolated mitochondrial fraction, at a final concentration of 2 mg/ml in a volume of 100 μL, was incubated at 37° C. with the examined agent, e.g. methyl jasmonate, in a KCl-based respiratory buffer (150 mM KCl, 25 mM NaHCO3, 1 mM MgCl2, 3 mM KH2PO4, 20 mM Hepes, pH 7.4; Pastorino, 2002). Potassium succinate (5 mM) was added as respiratory substrate (Azoulay-Zohar, 2004). For the determination of cytochrome c release, mitochondrial fraction was pelleted at 20,000×g for 10 minutes at 4° C. Pellets were incubated for 40 minutes with lysis buffer (Tris HCl, pH 8, 20 mM, NaCl 137 mM, EDTA 2 mM, pH 8, 1% Triton-X-100, Protease Inhibitors cocktail: Sigma) on ice (Fingrut, 2005). Pellet lysates and supernatants were separated on 12% SDS-PAGE gels and electroblotted onto nitrocellulose membranes. Cytochrome c was detected by specific antibody (1:1000, BD PharMingen, San Diego, Calif.). Antigen-antibody complexes were stained with horseradish peroxidase-conjugated antibody (1:10,000, Santa Cruz Biotechnology, CA) and enhanced chemiluminescence (ECL) reagent (EZ-ECL, Biological Industries, Beit Haemek, Israel), and exposed to ECL film (Eastman Kodak, Rochester, N.Y., U.S.A.). Cytochrome c release from mitochondrial fraction isolated from CT-26 tumors occurred within the same time frame (15-60 minutes) required to detach hexokinase from mitochondria (FIG. 3). […]

[6] = molecular target: T3, voltage-dependent anion channel (Rattus norvegicus, UniProt Q9Z2L0); test: Voltage-dependent anion channel recording in planar lipid bilayer (channel alone); type: biochemical; conditions: 3 mM; voltage stepped from 0 mV to −40 mV
T3 construct: purified mitochondrial voltage-dependent anion channel reconstituted into a planar lipid bilayer; from tissue; host or cells: rat liver mitochondria
T3 sequence (Q9Z2L0 whole entry): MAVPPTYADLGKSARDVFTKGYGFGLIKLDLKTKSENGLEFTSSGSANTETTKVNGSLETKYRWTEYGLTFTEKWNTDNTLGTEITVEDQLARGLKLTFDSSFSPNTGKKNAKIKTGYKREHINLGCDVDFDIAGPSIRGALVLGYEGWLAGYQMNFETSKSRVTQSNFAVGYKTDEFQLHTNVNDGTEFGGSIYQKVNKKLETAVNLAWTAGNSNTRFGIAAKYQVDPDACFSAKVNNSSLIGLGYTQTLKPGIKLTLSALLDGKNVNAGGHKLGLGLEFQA
Experimental: as §1

[7] = tested on: mitochondria-bound hexokinase (mitochondrial fraction of B16 melanoma tumors); test: Hexokinase detachment assay, mitochondrial fraction of B16 melanoma tumors; type: biochemical, murine; conditions: B16 tumor mitochondrial fraction; 30 minutes at 37° C.
Experimental: as §2

detachment of hexokinase, time dependence ([3]; 3 mM, 10, 30 or 60 minutes at 37° C.): time-dependent
detachment of hexokinase, dose dependence ([3]; 30 minutes of incubation): dose dependent
SMILES: CC/C=C\CC1C(=O)CCC1CC(=O)OC (centres unmarked) [methyl jasmonate]
effect on HK-I-induced low-conducting state of voltage-dependent anion channel ([1]; −20 mV): reversed by the addition of methyl jasmonate
effect on HK-I-closed voltage-dependent anion channel ([1]; −40 mV): led to re-opening of HK-I-closed channels
physical release of HKI and HKII into supernatant (immunoblot) [2]: release of both HKI and HKII were demonstrated
prevention of the development of lymphomas (lymphomas): effective in preventing the development of lymphomas in mice
detachment of hexokinase (activity of unbound hexokinase compared to control) [4]: detached hexokinase from mitochondrial fraction isolated from the three different cancer cells
time frame of cytochrome c release ([5]; CT-26 tumor mitochondrial fraction): 15 to 60 min
release of cytochrome c from isolated mitochondrial fraction ([5]; CT-26 tumor, 37° C.): caused time-dependent release of cytochrome c
current passing through voltage-dependent anion channel (no hexokinase) [6]: showed no effect on the current passing through voltage-dependent anion channel
detachment of hexokinase (activity of unbound hexokinase compared to control) [7]: detached hexokinase from mitochondrial fraction isolated from the three different cancer cells
